# According to patent US20230346952A1, “CANNABINOID GLYCOSIDE PRODRUGS AND METHODS OF SYNTHESIS” (priority 2015, published 2023):
# Tests used:
# Test in all cases: biochemical
# [1] = biological target: T1, safety screen panel of human pharmacological targets (Homo sapiens, UniProt P08908); settings: read-out: percent inhibition: 5-HT1A(h) {agonist radiogilgand)
# T1 sequence (P08908 1-422): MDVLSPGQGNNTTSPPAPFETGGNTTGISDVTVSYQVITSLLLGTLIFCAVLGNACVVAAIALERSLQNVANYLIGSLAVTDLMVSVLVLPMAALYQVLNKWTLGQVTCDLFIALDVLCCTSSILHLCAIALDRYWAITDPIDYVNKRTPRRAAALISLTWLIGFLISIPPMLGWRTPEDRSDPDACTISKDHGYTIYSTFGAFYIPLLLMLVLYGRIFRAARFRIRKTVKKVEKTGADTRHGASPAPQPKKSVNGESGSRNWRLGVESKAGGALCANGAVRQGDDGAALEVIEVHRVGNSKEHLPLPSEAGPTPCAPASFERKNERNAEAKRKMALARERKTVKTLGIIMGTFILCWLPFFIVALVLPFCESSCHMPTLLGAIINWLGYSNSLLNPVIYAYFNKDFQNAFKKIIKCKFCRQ
# [2] = biological target: T2, safety screen panel of human pharmacological targets (Homo sapiens, UniProt P10275); settings: read-out: percent inhibition: AR (h) (agonist radioligand)
# T2 sequence (P10275 1-920): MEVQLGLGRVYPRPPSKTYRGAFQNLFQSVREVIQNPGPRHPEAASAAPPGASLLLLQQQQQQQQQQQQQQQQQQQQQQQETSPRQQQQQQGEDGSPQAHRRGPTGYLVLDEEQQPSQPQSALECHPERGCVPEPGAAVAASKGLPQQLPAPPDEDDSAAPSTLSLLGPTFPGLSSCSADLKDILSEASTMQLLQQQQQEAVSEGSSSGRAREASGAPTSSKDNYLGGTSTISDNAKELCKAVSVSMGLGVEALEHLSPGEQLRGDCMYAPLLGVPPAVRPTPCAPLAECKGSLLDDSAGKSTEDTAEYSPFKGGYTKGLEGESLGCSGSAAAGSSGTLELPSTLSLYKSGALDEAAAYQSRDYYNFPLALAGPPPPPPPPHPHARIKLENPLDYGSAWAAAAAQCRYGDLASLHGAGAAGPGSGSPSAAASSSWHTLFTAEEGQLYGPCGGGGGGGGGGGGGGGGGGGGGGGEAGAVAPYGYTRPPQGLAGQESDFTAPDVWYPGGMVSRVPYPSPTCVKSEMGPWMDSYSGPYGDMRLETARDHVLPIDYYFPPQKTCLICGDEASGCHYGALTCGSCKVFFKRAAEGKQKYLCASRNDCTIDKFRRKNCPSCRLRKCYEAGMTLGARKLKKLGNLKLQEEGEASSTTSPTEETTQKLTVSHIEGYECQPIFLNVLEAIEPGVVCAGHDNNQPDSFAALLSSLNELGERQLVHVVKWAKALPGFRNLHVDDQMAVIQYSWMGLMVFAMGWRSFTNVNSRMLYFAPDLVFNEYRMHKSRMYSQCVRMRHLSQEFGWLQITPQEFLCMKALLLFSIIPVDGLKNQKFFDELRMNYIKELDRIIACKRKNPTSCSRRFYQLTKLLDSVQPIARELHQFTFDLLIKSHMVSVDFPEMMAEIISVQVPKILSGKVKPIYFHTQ
# [3] = biological target: safety screen panel of human pharmacological targets (Rattus norvegicus, UniProt P28564); settings: read-out: percent inhibition: 5-HT1B (antagonist radioligand)
# Chain of safety screen panel of human pharmacological targets (Rattus norvegicus, UniProt P28564) (P28564 whole entry): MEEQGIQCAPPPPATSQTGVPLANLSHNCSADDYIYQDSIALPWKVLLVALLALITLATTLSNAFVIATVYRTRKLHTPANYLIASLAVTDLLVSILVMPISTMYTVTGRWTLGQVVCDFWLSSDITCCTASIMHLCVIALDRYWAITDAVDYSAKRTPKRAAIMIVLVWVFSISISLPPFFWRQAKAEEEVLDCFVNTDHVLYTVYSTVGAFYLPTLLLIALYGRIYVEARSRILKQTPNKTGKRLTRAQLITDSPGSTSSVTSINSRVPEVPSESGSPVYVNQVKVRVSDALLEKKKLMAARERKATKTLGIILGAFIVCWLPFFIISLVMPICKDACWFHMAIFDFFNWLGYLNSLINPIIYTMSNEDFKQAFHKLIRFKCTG
# [4] = biological target: T3, safety screen panel of human pharmacological targets (Homo sapiens, UniProt P08172); settings: read-out: percent inhibition: M2 (h) (antagonist radioligand)
# T3 sequence (P08172 1-466): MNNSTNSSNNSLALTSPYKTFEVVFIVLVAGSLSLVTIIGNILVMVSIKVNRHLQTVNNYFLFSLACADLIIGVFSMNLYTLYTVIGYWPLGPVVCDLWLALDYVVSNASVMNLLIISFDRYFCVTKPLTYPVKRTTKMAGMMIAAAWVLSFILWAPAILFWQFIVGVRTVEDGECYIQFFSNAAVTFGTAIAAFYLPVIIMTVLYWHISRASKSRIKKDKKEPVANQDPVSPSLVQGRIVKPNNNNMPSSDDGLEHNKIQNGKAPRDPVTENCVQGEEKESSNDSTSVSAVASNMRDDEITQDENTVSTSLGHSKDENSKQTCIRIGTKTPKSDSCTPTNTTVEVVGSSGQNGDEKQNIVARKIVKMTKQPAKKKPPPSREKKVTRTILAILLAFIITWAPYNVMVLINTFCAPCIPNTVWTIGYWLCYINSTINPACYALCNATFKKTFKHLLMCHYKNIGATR
# [5] = biological target: safety screen panel of human pharmacological targets (Homo sapiens, UniProt P23219); settings: read-out: percent inhibition: COX1(h)
# Chain of safety screen panel of human pharmacological targets (Homo sapiens, UniProt P23219) (P23219 24-599): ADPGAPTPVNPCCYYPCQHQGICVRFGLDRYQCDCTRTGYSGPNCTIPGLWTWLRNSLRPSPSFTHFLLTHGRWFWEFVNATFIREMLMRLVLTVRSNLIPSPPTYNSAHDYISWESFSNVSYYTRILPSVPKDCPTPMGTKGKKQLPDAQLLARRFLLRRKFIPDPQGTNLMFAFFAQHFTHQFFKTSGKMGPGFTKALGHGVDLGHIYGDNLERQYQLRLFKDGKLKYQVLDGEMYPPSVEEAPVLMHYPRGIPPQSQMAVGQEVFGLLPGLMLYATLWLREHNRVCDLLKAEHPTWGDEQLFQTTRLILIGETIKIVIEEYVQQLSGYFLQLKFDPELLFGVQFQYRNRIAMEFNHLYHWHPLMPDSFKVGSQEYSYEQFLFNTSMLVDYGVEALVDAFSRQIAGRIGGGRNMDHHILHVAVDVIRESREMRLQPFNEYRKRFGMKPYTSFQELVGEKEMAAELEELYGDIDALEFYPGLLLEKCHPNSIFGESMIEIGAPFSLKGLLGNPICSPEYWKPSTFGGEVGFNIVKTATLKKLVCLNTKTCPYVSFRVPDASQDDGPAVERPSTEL
# [6] = biological target: safety screen panel of human pharmacological targets (Homo sapiens, UniProt P21728); settings: read-out: percent inhibition: D1 (h) (antagonist radioligand)
# Chain of safety screen panel of human pharmacological targets (Homo sapiens, UniProt P21728) (P21728 whole entry): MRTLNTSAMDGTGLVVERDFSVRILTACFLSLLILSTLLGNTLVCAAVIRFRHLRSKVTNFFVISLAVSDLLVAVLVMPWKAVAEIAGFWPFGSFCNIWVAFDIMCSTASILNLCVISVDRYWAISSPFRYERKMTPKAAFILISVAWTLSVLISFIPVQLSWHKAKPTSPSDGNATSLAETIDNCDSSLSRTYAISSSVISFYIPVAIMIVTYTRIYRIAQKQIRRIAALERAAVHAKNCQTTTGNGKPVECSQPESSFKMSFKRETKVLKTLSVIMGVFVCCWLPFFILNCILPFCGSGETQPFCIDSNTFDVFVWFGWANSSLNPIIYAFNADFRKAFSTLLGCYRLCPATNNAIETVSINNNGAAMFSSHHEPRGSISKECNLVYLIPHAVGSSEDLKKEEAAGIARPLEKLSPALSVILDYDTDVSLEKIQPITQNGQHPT
# [7] = biological target: safety screen panel of human pharmacological targets (Homo sapiens, UniProt P25021); settings: read-out: percent inhibition: H2 (h) (antagonist radioligand)
# Chain of safety screen panel of human pharmacological targets (Homo sapiens, UniProt P25021) (P25021 whole entry): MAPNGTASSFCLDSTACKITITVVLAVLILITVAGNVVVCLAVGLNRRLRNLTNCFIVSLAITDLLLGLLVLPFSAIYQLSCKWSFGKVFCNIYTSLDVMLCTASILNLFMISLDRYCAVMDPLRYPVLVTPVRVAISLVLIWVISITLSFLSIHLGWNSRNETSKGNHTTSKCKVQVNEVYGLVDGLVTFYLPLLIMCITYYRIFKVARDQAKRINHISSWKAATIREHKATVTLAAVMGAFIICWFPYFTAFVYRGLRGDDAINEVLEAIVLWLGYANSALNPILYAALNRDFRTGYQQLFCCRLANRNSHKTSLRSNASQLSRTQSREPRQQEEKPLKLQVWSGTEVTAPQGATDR
# [8] = biological target: T4, safety screen panel of human pharmacological targets (Rattus norvegicus, UniProt P21396); settings: read-out: percent inhibition: MAO-A (antagonist radioligand)
# T4 sequence (P21396 1-526): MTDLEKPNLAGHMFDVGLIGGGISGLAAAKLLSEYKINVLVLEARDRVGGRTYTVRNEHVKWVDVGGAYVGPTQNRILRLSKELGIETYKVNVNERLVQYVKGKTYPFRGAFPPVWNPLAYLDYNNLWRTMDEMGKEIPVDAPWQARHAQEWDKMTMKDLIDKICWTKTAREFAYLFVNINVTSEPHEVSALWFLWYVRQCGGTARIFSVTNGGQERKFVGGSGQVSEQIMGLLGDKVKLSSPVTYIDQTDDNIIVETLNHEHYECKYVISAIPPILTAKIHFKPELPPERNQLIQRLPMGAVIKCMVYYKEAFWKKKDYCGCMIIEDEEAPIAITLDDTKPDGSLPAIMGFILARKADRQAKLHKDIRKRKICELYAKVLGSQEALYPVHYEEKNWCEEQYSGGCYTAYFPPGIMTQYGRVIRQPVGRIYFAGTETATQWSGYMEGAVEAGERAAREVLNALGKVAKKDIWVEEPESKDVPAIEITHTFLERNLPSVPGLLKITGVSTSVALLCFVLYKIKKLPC
Structure (SMILES),inhibition at 10 µM [1],inhibition at 10 µM [2],inhibition at 10 µM [3],inhibition at 10 µM [4],inhibition at 10 µM [5],inhibition at 10 µM [6],inhibition at 10 µM [7],inhibition at 10 µM [8]
CCCCCc1cc(O[C@@H]2O[C@H](CO[C@@H]3O[C@H](CO)[C@@H](O)[C@H](O)[C@H]3O)[C@@H](O[C@@H]3O[C@H](CO)[C@@H](O)[C@H](O)[C@H]3O)[C@H](O)[C@H]2O)c2c(c1)OC(C)(C)[C@@H]1CCC(C)=C[C@@H]21 [VB311],-6%,10%,-7%,-4%,11%,37%,-10%,2%
"CCCCCc1cc(O)c2c(c1)OC(C)(C)[C@@H]1CCC(C)=C[C@@H]21 [VB301, Δ9-Terahydrocannabinol, reference compound]",-27%,13%,26%,21%,9%,75%,-6%,1%
"CCCCCc1cc(O[C@@H]2O[C@H](CO)[C@@H](O)[C@H](O)[C@H]2O)c2c(c1)OC(C)(C)[C@@H]1CCC(C)=C[C@@H]21 [VB302, Δ9THC-1-O-glucopyranoside]",6%,4%,-1%,2%,30%,4%,-11%,5%
